The record followed here is patent EP4806445A1, “USE OF COMPOSITION FOR PREVENTING, ALLEVIATING OR TREATING DIABETIC KIDNEY DISEASE COMPRISING ZINC SALT AND CYCLO-HISPRO AS ACTIVE INGREDIENTS” (Novmetapharma Co., Ltd., priority 2023, dated 2025).

Type in all cases: in vivo
The subject of experiment [1] is KKAy mice. Nature of the experiment: ACR, drug administration from severe condition, CycloZ and/or metformin (Example 5). The settings on record: week 12. How it is done:
(§1) At week 11 of administration, 24-hour urine was collected using a metabolic cage and centrifuged at 1,000 rpm for 5 minutes to remove suspended solids. Albumin was measured with a DCA vantage analyzer (Siemens) and DCA® Microalbumin/Creatinine Urine Test cartridge (Siemens) using urine diluted 1/2 with distilled water. Creatinine was measured using undiluted urine and a mouse creatinine assay kit (Crystalchem). The measured albumin (mg/dL) value was divided by the creatinine (g/dL) value to derive the ACR (mg/g) value.
After breeding five-week-old KKAy mice of Example 1-1 for 6 weeks, urine was collected for 24 hours and ACR was measured using the same method as in Example 3-2. The groups were randomly divided as shown in Table 6 so that the average ACR values were the same, and then the drug was orally administered daily for 12 weeks from the age of 12 weeks as shown in Table 6.
At week 12 of administration, 24-hour urine was collected using a metabolic cage, and ACR was measured using the same method as in Example 3-2.

Experiment [2] deals with KKAy mice. Nature of the experiment: Measurement of urine albumin (albuminuria) in diabetic kidney disease model. The settings on record: week 16 of administration; for albuminuria: 24-hour urine, losartan 20 mg/kg in drinking water, dapagliflozin 2 mg/kg, CycloZ 15 mg/kg oral daily, negative control 51.4; for decrease in albuminuria compared to the negative control group: same doses as E1. How it is done: Five-week-old KKay mice were purchased from Clea, Japan, and as a normal control group, five-week-old C57BL6/J mice were purchased from Daehan Bio Link Co., Ltd. Breeding was performed under constant conditions (temperature: 22±2 °C, relative humidity: 55±10%, circadian cycle: 12 hours), and Purina mouse diet was used as feed and distilled water was used as drinking water. Mice were used in the experiment after a one-week adaptation period following purchase. Lorsartan used in the examples below was purchased from […], and dapagliflozin was purchased from Betapahrma. Metabolic cages were prepared using products from Jeongdo B&P Co., Ltd. Isoflurane, which is necessary for anesthesia and dissection of mice, was purchased from Hana Pharm Co., Ltd., and the RC2 Rodent Circuit Controller Anesthesia System from Vetequip was prepared. Phosphate buffered saline (PBS) was purchased from Hyclone. The KKAy animal model is known to have 10-50 times higher proteinuria (albuminuria) than the db/db animal model, and is reported to show the most severe mesangial matrix expansion among all models. […] The normal control group and the negative control group were orally administered the same amount of distilled water daily. [Table 1] At week 16 of administration, 24-hour urine was collected using a metabolic cage and centrifuged at 2,000 rpm for 10 minutes to remove suspended solids. Albumin was measured with a DCA vantage analyzer (Siemens) and DCA® Microalbumin/Creatinine Urine Test cartridge (Siemens) using urine diluted 1/10 with distilled water.

The test system of experiment [3] is KKAy mice. The experiment is described as follows: ACR, drug administration from severe condition, CycloZ, losartan and/or sitagliptin (Example 4). The settings on record: week 9. The protocol:
as §1
After breeding five-week-old KKAy mice of Example 1-1 for 6 weeks, urine was collected for 24 hours and ACR was measured using the same method as in Example 3-2. The groups were randomly divided as shown in Table 5 so that the average ACR values were the same, and then the drug was orally administered daily for 9 weeks from the age of 12 weeks as shown in Table 5. At this time, losartan was dissolved in drinking water to allow a daily intake of 20 mg/kg per subject, and the remaining drugs were orally administered daily.
At week 9 of administration, 24-hour urine was collected using a metabolic cage, and ACR was measured using the same method as in Example 3-2.

Experiment [4] has as its system KKAy mice. The experiment is described as follows: ACR, drug administration from mild condition (Example 3-1/3-2). The settings on record: administration from mild stage, week 11. The protocol: Five-week-old KKAy mice of Example 1-1 were pre-bred for one week and then divided into groups as shown in Table 1 so that the average body weights were the same. The control group was orally administered distilled water for 11 weeks, while Group 1 was orally administered 15 mg/kg of CycloZ, Group 2 was orally administered 10 mg/kg of sitagliptin, and Group 3 was orally administered 10 mg/kg of sitagliptin + 15 mg/kg of CycloZ daily for the same period.
as §1

Experiment [5] relates to KKAy mice. The experiment is described as follows: ACR, drug administration from severe condition, CycloZ and/or sitagliptin (Example 3-3/3-4). The settings on record: week 11. How it is done:
as §1
After breeding five-week-old KKAy mice of Example 1-1 for 6 weeks, urine was collected for 24 hours and ACR was measured using the same method as in Example 3-2. The groups were randomly divided as shown in Table 4 so that the average ACR values were the same, and then the drug was orally administered daily for 11 weeks from the age of 12 weeks as shown in Table 4.
At week 11 of administration, 24-hour urine was collected using a metabolic cage, and ACR was measured using the same method as in Example 3-2.

Where [6] appears, read: administration from severe stage.

For `CN(C)C(=N)N=C(N)N` [Metformin, metformin], the ACR in experiment [1] (administration from severe stage (age 12 weeks), CycloZ 15 mg/kg, metformin 200 mg/kg oral daily, negative control 2,369) is recorded as 2,952 mg/g. Besides, the “effect on alleviating ACR (result in words)” value in experiment [1] (setting [6]) was “did not show a significant effect on alleviating ACR”.

For the molecule `CCCCc1nc(Cl)c(CO)n1Cc1ccc(-c2ccccc2-c2nn[nH]n2)cc1` [Losartan, losartan], in experiment [2], the albuminuria came to 39.3 mg/dL and the “decrease in albuminuria compared to the negative control group” value was 23.5%. The ACR in experiment [3] (administration from severe stage (age 12 weeks), CycloZ 15 mg/kg, losartan 20 mg/kg in drinking water, sitagliptin 10 mg/kg, negative control 7,118) is given as 7,158 mg/g. The “effect on alleviating ACR (result in words)” value in experiment [3] (setting [6]) is on record as “did not show a significant effect on alleviating ACR”.

Turning to `CCOc1ccc(Cc2cc([C@@H]3O[C@H](CO)[C@@H](O)[C@H](O)[C@H]3O)ccc2Cl)cc1` [Dapagliflozin, dapagliflozin], in experiment [2], the albuminuria came to 31.1 mg/dL and the “decrease in albuminuria compared to the negative control group” value is 39.5%.

Consider `N[C@@H](CC(=O)N1CCn2c(nnc2C(F)(F)F)C1)Cc1cc(F)c(F)cc1F` [Sitagliptin, sitagliptin], for which the “ACR reduced compared to the control group” value in experiment [4] was approximately 24%. In addition, the ACR in experiment [4] (CycloZ 15 mg/kg, sitagliptin 10 mg/kg oral daily, negative control 6,379) is 4,852 mg/g; in experiment [5] (administration from severe stage (age 12 weeks), CycloZ 15 mg/kg, sitagliptin 10 mg/kg oral daily, negative control 4,450), 2,301 mg/g. The “ACR decrease compared to the negative control group” value in experiment [5] (setting [6]) came to 48%.
